Data as given in ChEMBL document CHEMBL1131709, “Acyl-CoA: cholesterol acyltransferase inhibitory activity of ginseng sapogenins, produced from the ginseng saponins” (Bioorg Med Chem Lett, 1999).
pIC50: −log10 of the molar value.

molecular target: T1, Sterol O-acyltransferase 1 (Rattus norvegicus, UniProt O70536); assay: In vitro inhibitory activity of compound was measured on rat liver Acyl coenzyme A:cholesterol acyltransferase
T1 sequence (O70536 whole entry): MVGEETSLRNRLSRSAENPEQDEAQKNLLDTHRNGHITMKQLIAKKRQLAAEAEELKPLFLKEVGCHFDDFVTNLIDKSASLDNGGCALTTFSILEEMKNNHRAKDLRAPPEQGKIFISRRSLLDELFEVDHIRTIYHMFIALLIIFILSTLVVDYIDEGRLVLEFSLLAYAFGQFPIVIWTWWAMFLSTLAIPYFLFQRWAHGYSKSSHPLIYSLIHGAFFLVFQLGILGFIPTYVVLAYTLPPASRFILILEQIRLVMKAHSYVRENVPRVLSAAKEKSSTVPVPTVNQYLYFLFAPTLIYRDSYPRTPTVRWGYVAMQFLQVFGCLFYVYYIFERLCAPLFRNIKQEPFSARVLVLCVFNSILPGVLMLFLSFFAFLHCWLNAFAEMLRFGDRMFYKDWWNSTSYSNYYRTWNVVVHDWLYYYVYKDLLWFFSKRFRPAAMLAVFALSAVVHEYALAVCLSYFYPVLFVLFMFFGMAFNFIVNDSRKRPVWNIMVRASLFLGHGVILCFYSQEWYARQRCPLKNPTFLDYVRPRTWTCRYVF

**Q.** CC(C)=CCC[C@@](C)(O)[C@H]1CC[C@]2(C)[C@@H]1[C@H](O)C[C@@H]1[C@@]3(C)CC[C@H](O)C(C)(C)[C@@H]3CC[C@]12C was tested. Which pIC50 did it give?
**A.** 5.00

**Q.** CC1(C)CCC[C@](C)(C2CC[C@]3(C)C2[C@H](O)CC2[C@@]4(C)CC[C@H](O)C(C)(C)C4CC[C@]23C)O1 (stereo partly drawn) was tested. Which pIC50 did it give?
**A.** 4.26

**Q.** CC1(C)CCC[C@](C)(C2CC[C@]3(C)C2[C@H](O)CC2[C@@]4(C)CC[C@H](O)C(C)(C)C4[C@@H](O)C[C@]23C)O1 (stereo partly drawn) was tested. Which pIC50 did it give?
**A.** 4.92

**Q.** CC(C)=CCC[C@](C)(O)C1CC[C@]2(C)C1[C@H](O)CC1[C@@]3(C)CC[C@H](O)C(C)(C)C3[C@@H](O)C[C@]12C (stereo partly drawn) was tested. Which pIC50 did it give?
**A.** 4.62

**Q.** How did the pIC50 turn out when CC1(C)CCC[C@@](C)(C2CC[C@]3(C)C2[C@H](O)CC2[C@@]4(C)CC[C@H](O)C(C)(C)C4[C@@H](O)C[C@]23C)O1 (stereo partly drawn) was run?
**A.** 4.55

**Q.** With CC1(C)CCC[C@@](C)(C2CC[C@]3(C)C2[C@H](O)CC2[C@@]4(C)CC[C@H](O)C(C)(C)C4CC[C@]23C)O1 (stereo partly drawn) as the compound, how does the pIC50 read?
**A.** 4.60

**Q.** CC(C)=CCC[C@@](C)(O)[C@H]1CC[C@]2(C)C1[C@H](O)C[C@@H]1[C@@]3(C)CC[C@H](O)C(C)(C)[C@@H]3[C@@H](O)C[C@]12C (stereo partly drawn) was tested. Which pIC50 did it give?
**A.** 5.22

**Q.** With CC(C)=CCC[C@](C)(O)[C@H]1CC[C@]2(C)[C@@H]1[C@H](O)C[C@@H]1[C@@]3(C)CC[C@H](O)C(C)(C)[C@@H]3CC[C@]12C as the compound, how does the pIC50 read?
**A.** 4.52
